Experiments:
[1] = Drug uptake in iv dosed Wistar rat assessed as standardized uptake value by PET imaging analysis; assay type: ADME, organism-based; conditions: in vivo
[2] = Drug uptake in iv dosed Wistar rat brain assessed as standardized uptake value after 120 mins by PET imaging analysis; assay type: ADME, organism-based; conditions: in vivo, 2 h
[3] = Drug metabolism in iv dosed Wistar rat brain assessed as metabolite formation after 30 to 90 mins RP-HPLC analysis; assay type: ADME, organism-based; conditions: in vivo, time 30-90 min
[4] = Drug uptake in iv dosed mouse liver assessed as standardized uptake value at 60 mins by PET imaging analysis; assay type: ADME, organism-based; conditions: in vivo, 1 h
[5] = Drug uptake in iv dosed monkey brain assessed as standardized uptake value after 90 mins by PET imaging analysis; assay type: ADME, organism-based, Macaca mulatta; conditions: rhesus monkey, in vivo, 1.5 h
[6] = Drug uptake in iv dosed mouse liver assessed as standardized uptake value at 5 mins by PET imaging analysis; assay type: ADME, organism-based; conditions: in vivo
[7] = Drug uptake in iv dosed mouse brain assessed as standardized uptake value by PET imaging analysis; assay type: ADME, organism-based; conditions: in vivo
[8] = Drug metabolism in iv dosed Wistar rat blood assessed as metabolite formation after 30 mins RP-HPLC analysis; assay type: ADME, organism-based; conditions: in vivo, 0.5 h
[9] = Drug uptake in iv dosed Wistar rat brain after 3 mins; assay type: ADME, organism-based; conditions: in vivo, 0.05 h

Structure (SMILES)	SUV [1]	SUV [2]	Drug metabolism [3]	SUV [4]	SUV [5]	SUV [6]	SUV [7]	Drug metabolism [8]	Drug uptake [9]
CC(C)=CCC/C(C)=C/CC/C(C)=C/C=C/C([11CH3])=C/C(=O)OCc1ccccc1	0.6	–	–	–	–	–	–	–	–
CC(C)=CCC/C(C)=C/CC/C(C)=C/C=C/C([11CH3])=C/C(=O)O	–	1.4	Metabolite_Detected	4.3	> 3	6.7	0.8	Metabolite_Detected	Active
